{"source": "paper PMC9572546", "about": "“Discovery of Novel c-Jun N-Terminal Kinase 1 Inhibitors from Natural Products: Integrating Artificial Intelligence with Structure-Based Virtual Screening and Biological Evaluation” (Molecules, 2022)", "target": "T1, c-Jun N-terminal kinase 1 (JNK1) (Homo sapiens, UniProt P45983)", "T1 construct": "gene MAPK8", "T1 sequence (P45983 whole entry)": "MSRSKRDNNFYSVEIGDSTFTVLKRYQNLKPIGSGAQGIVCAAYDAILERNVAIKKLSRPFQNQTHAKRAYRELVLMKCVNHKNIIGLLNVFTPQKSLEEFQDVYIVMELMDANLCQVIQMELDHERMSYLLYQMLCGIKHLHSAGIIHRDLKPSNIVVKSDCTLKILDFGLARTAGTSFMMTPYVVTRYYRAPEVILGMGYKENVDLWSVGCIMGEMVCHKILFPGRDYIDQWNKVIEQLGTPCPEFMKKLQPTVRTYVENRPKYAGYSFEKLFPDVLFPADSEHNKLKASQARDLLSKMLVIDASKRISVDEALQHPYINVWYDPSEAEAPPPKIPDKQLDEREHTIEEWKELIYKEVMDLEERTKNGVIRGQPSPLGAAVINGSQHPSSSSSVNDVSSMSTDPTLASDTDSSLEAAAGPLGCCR", "test": "LANCE Ultra TR-FRET kinase assay (PerkinElmer), 10-point two-fold dilution", "assay_type": "biochemical", "note": "pIC50: −log10 of the molar value.", "data": [{"compound": "COc1cc(-c2cc(=O)c3c(O)cc(O)cc3o2)cc(OC)c1O", "note": "[Tricin]", "values": [{"measurement": "pIC50", "value": 4.75}]}]}
